What was measured:
[1] = Combination therapy amylin + sibutramine in DIO prone rats; assay type: in vivo, rat; conditions: two weeks
Protocol: In-bred DIO prone rats were obtained from Charles Rivers Labs. These rats were developed from a line of Crl:CD®(SD)BR rats that are prone to become obese on a diet relatively high in fat and energy (Levin, 1997). The rats were housed individually in shoebox cages at 22° C. in a 12/12-hour light dark cycle. […] At the end of the fattening period they typically have a mean body weight of 500 g. Rats were then divided into treatment groups and implanted with two subcutaneous mini-pumps (Durect Corp).

[2] = e.g., provoking marked hyperlactemia followed by hyperglycemia; cited from earlier work
[3] = amylin 100 μg/kg/day and/or sibutramine 3 mg/kg/day

Compound: CC(C)CC(N(C)C)C1(c2ccc(Cl)cc2)CCC1 (stereo not drawn) [sibutramine]
- change in body weight (vehicle-corrected) ([1]; amylin 100 μg/kg/day and/or sibutramine 3 mg/kg/day by mini-pumps): approximately 5%
- fat mass [1, 3]: Fat mass loss was also evident
- lean (protein) mass [1, 3]: relatively unchanged

Compound: ^28Pro-h-amylin (KCNTATCATQRLANFLVHSSNNFGAILPSTNVGSNTY)
- amylin activity in vivo [2]: show amylin activity in vivo

Compound: des-^1Lys-h-amylin (CNTATCATQRLANFLVHSSNNFGAILSSTNVGSNTY)
- amylin activity in vivo [2]: show amylin activity in vivo

Compound: des-^1Lys^18Arg^25,28Pro-h-amylin (CNTATCATQRLANFLVRSSNNFGPILPSTNVGSNTY)
- amylin activity in vivo [2]: show amylin activity in vivo

From patent US8278267B2 (Amylin Pharmaceuticals, LLC, priority 2005, dated 2012)
